In ChEMBL document CHEMBL3507680, “University of Dundee, Gates Library screen for HepG2 cell viability” one finds cytotoxicity data, which are given here for 69 compounds.

Each structure is given as a SMILES string.

The data set in a line: Human HepG2 cell viability assay in 384 well format. It counts as toxicity, cell-based. The settings on record: HepG2 cells, read-out: Inhibition. Further details: dose 125 nL, time 70.5 hour; cytotoxicity at 70.5 h: concentration not given beside the values.
As for `O=C(c1ncccn1)N1C[C@@H]2COC[C@]2(COCc2cccnc2)C1`, the cytotoxicity at 70.5 h was -5.13%.

As to `O=C1CCC2(CCN(c3cccc(C(F)(F)F)n3)CC2)CN1CCO`, the cytotoxicity at 70.5 h is -5.14%.

On to `COc1ccc(NC(=O)C(C)(C)C)cc1OCc1cccnc1`, for which the cytotoxicity at 70.5 h worked out at 3.3%.

Regarding `COc1ccc(-c2cn([C@H](CO)CC(C)C)nn2)cn1`, the cytotoxicity at 70.5 h was -4.51%.

For `CCN1CCN(C(=O)c2ccc3c(c2)OCC(=O)N3)[C@H]2CS(=O)(=O)C[C@H]21`, the cytotoxicity at 70.5 h is -12.3%.

Consider `CCC(NS(=O)(=O)c1ccc(C(=O)NC2CC2)cc1)c1ccnn1C` (centres undefined), for which the cytotoxicity at 70.5 h is -7.49%.

In the case of `O=C([C@H]1CN(Cc2ccccc2F)C[C@H]2OCC[C@@H]12)N1CCCO1`, the cytotoxicity at 70.5 h is 1.95%.

On to `CCS(=O)(=O)N1CCC2(CC1)CC[C@@]1(C(=O)NC)CN(C(C)=O)C[C@@H]21`, for which the cytotoxicity at 70.5 h came to 11%.

With `CCCc1nc(CN2CCCN(Cc3nccn3C)CC2)no1`, the cytotoxicity at 70.5 h is -14.9%.

`c1ccc(N2CCOC3(CCCN(c4ncccn4)C3)C2)nc1` (centres undefined): the cytotoxicity at 70.5 h is -5.71%.

As to `CC1=CCN(S(=O)(=O)c2cccc(C(=O)N3CCOCC3)c2)CC1`, the cytotoxicity at 70.5 h is -15.8%.

As to `CC(C)NC(=O)c1ccc2nnc(C3CN(C)CCN3C)n2c1` (centres undefined), the cytotoxicity at 70.5 h was -8.09%.

For `CC(C)CN1CCN(C(=O)CCn2cccn2)CC1`, the cytotoxicity at 70.5 h was -1.87%.

On to `Cc1nc(CN2C(=O)CC[C@@H]3[C@H]2CCN3C(=O)c2ccccn2)cs1`, for which the cytotoxicity at 70.5 h is -4.48%.

For the compound `C/C(NC(=O)c1ccco1)=C1/C(=O)C[C@@H]2[C@H]1C2(C)C`, the cytotoxicity at 70.5 h is -6.66%.

Turning to `CC1CCCN(C(=O)c2cccc(CS(C)(=O)=O)c2)C1` (centres undefined), the cytotoxicity at 70.5 h was determined as 7.89%.

As for `CCCc1nnc(NCCc2noc(C3CCCC3)n2)o1`, the cytotoxicity at 70.5 h was determined as 9.03%.

In the case of `O=C(c1nn[nH]c1Nc1ccc(Cl)cc1)N1CCSCC1`, the cytotoxicity at 70.5 h came out at 9.23%.

Consider `O=C1CCC(C(=O)N2CCOC(Cc3ccccc3Cl)C2)=NN1` (centres undefined), for which the cytotoxicity at 70.5 h was -8.63%.

Turning to `O=C(COc1ccccc1)NCC1CCN(Cc2ccsc2)CC1`, the cytotoxicity at 70.5 h is -4.27%.

Regarding `Cc1cc(C)c2c(c1)C(NC(=O)CSc1nnc[nH]1)CCO2` (centres undefined), the cytotoxicity at 70.5 h was determined as 10.8%.

Take `CN(CC1CC1)c1ccc2ccc(C(=O)NC3CCCCC3)cn12`: the cytotoxicity at 70.5 h stood at 12.9%.

As for `CS(=O)(=O)c1ccc(CN2C[C@H]3CC[C@@H]2CN(c2ncccn2)C3)cc1`, the cytotoxicity at 70.5 h was -5.94%.

For the compound `Cn1ccc(C(=O)N2CCC(Cc3cccc4cccnc34)C2)n1` (centres undefined), the cytotoxicity at 70.5 h is -5.77%.

`c1cnc(N2CC[C@@H]3CN(Cc4ccncc4)CCO[C@@H]3C2)nc1`: the cytotoxicity at 70.5 h was -2.03%.

Consider `CC(C)(O)CN1CC(C)(C)CN(C(=O)CCc2ccccc2)CC1=O`, for which the cytotoxicity at 70.5 h was -1.35%.

For `CCc1nccn1C1CCCN(C(=O)c2ccc(N(C)C)nn2)C1` (centres undefined), the cytotoxicity at 70.5 h was -7.7%.

For `CN(C)[C@@H]1CN(C(=O)Cc2cccc(F)c2)[C@@H]2CCCO[C@H]12`, the cytotoxicity at 70.5 h is -1.9%.

`COCCO[C@H]1CCN(C(=O)c2ccc[nH]2)[C@H]1Cc1ccncc1`: the cytotoxicity at 70.5 h is -3.06%.

Consider `CN(Cc1ccccc1)CC1(O)CCCN(CC(C)(C)C)C1=O` (centres undefined), for which the cytotoxicity at 70.5 h is -3.59%.

Take `CC(C)COc1cncc(NCC(O)c2ccco2)n1` (centres undefined): the cytotoxicity at 70.5 h was 33.1%.

Turning to `CCC(C)(CC(=O)O)NC(=O)Cc1ccccc1Br` (centres undefined), the cytotoxicity at 70.5 h is -4.24%.

With `c1cnn([C@@H]2CN(Cc3nccs3)[C@@H]3CCCO[C@@H]32)c1`, the cytotoxicity at 70.5 h is -6.1%.

As to `COc1ccc(N(Cc2ccco2)C(=O)C2CCOC2)cc1F` (centres undefined), the cytotoxicity at 70.5 h is -6.7%.

Regarding `CC(C(=O)N(C)C1CCCCC1)S(=O)(=O)Cc1csc(-c2cccs2)n1` (centres undefined), the cytotoxicity at 70.5 h was -7.18%.

`CC(C)C(C)N1Cc2cccc(NCC(=O)N(C)C)c2C1` (centres undefined): the cytotoxicity at 70.5 h is -8.25%.

Turning to `CN(C)C(=O)CN1CCc2ncnc(C3CC3)c2CC1`, the cytotoxicity at 70.5 h came out at 2.76%.

Regarding `CCCOc1c(Cl)cc(C(=O)N2CCOC23CCN(C)CC3)cc1Cl`, the cytotoxicity at 70.5 h was 7.29%.

For the compound `Cc1cc(C)c(CNC(=O)NC(C)c2ccc3c(c2)CCC3)c(=O)[nH]1` (centres undefined), the cytotoxicity at 70.5 h was 25.3%.

On to `Fc1cnc(N2CCCC3(CCN(Cc4ccsc4)C3)C2)nc1` (centres undefined), for which the cytotoxicity at 70.5 h came out at 4.29%.

On to `Cn1ncc(N2CCOC(CCNC(=O)N3CCCCC3)C2)cc1=O` (centres undefined), for which the cytotoxicity at 70.5 h was -6.9%.

For `CC(C)CN(Cc1ccc(O)c(C(=O)O)c1)Cc1cnn(C)c1`, the cytotoxicity at 70.5 h is -1.34%.

With `CCc1csc(CNCC(=O)Nc2ccc(Cl)c(C)c2)n1`, the cytotoxicity at 70.5 h was -6.59%.

As to `OCCOCc1n[nH]c2c1CN(Cc1cccs1)C2`, the cytotoxicity at 70.5 h is -2.23%.

Regarding `O=C(NCC1CCOCC1)[C@H]1C[C@@H]2CCN(Cc3ccncc3)C[C@@H]2O1`, the cytotoxicity at 70.5 h was -1.08%.

Turning to `O=C(COC1CCCCC1)Nc1ccn(Cc2ccccn2)n1`, the cytotoxicity at 70.5 h was -5.54%.

For the compound `CCn1cc(-c2cc(C(F)F)n3nc(CCC(=O)O)nc3n2)cn1`, the cytotoxicity at 70.5 h is -2.48%.

Turning to `CC(=O)N1CCN(CCNC(=O)NC(C)Cn2ccnc2)CC1` (centres undefined), the cytotoxicity at 70.5 h is -2.74%.

For the compound `CC(=O)N1N=C(c2ccncc2)OC1C(=O)N(C)CCc1ccccc1` (centres undefined), the cytotoxicity at 70.5 h was 4.98%.

For the compound `Cc1cc(OCc2ccc(C(=O)O)s2)ccc1Cl`, the cytotoxicity at 70.5 h was -0.232%.

Turning to `CC(SCC(=O)NC(N)=O)c1ccc(Cl)cc1` (centres undefined), the cytotoxicity at 70.5 h was -9.52%.

With `CC1CN(C)CCN1C(=O)c1cnc2onc(CC(C)(C)C)c2c1` (centres undefined), the cytotoxicity at 70.5 h was -8.98%.

Regarding `CN(Cc1ccccn1)C1CCCN(c2cccnn2)C1` (centres undefined), the cytotoxicity at 70.5 h was 3.01%.

Regarding `O=C(NC1CCCCC1)N1CCc2onc(COc3cccnc3)c2C1`, the cytotoxicity at 70.5 h is -6.55%.

Regarding `NC(=O)NC(=O)C(c1ccccc1)N1CCN(Cc2ccc(Cl)s2)CC1` (centres undefined), the cytotoxicity at 70.5 h was -3.49%.

In the case of `CN(CC(N)=O)CC1(c2ccc(Br)cc2)CC1`, the cytotoxicity at 70.5 h is -5.53%.

Consider `Cc1ccc(-n2cc(S(=O)(=O)Nc3cccc(C(=O)O)c3C)cn2)cc1`, for which the cytotoxicity at 70.5 h is -12.2%.

With `CCc1nnc(SC2CCN(c3ccccc3F)C2=O)n1C` (centres undefined), the cytotoxicity at 70.5 h is -2.9%.

`O=C(CCn1cc(Cl)cn1)N1CCN(CC2CC2)[C@@H]2CS(=O)(=O)C[C@@H]21`: the cytotoxicity at 70.5 h is -10.2%.

For `CCCc1n[nH]c(C2CN(CCS(=O)(=O)CC)CCO2)n1` (centres undefined), the cytotoxicity at 70.5 h was -7.9%.

On to `Cn1ccc(CN2CC(Cc3nccc4cc[nH]c34)C2)n1`, for which the cytotoxicity at 70.5 h was -4.79%.

`COCc1cc(N2CCN(C3CCCCC3)CC2)n2nccc2n1`: the cytotoxicity at 70.5 h is -4.81%.

On to `O=C(c1ccc(-n2ccnc2)nn1)N1CCCC1CCc1ccccc1` (centres undefined), for which the cytotoxicity at 70.5 h was -19.5%.

For the compound `CNC(=O)CS(=O)(=O)C1CCN(S(=O)(=O)c2c(F)cccc2F)CC1`, the cytotoxicity at 70.5 h is -7.9%.

With `Cc1cc(Nc2ccc(F)cn2)cc(C2CCCN2)n1` (centres undefined), the cytotoxicity at 70.5 h was -7.05%.

For the compound `NC(=O)CSc1ccccc1NC(=O)C1CCCC1`, the cytotoxicity at 70.5 h was -5.87%.

For the compound `O=C(Nc1cccnc1N1CCSCC1)c1ccc2c(c1)CCC2`, the cytotoxicity at 70.5 h is -3.24%.

For the compound `CC(=O)NCC(=O)N1Cc2nc(COCc3csc(C)n3)oc2C1`, the cytotoxicity at 70.5 h was -8.19%.

On to `c1cc(CNc2ccc(-c3nc(C4CC4)no3)cn2)no1`, for which the cytotoxicity at 70.5 h is -8.43%.
